≈ marks a conversion by molar mass, not a printed value.
How the values were obtained:
[1] = system: carbapenem sensitive Pseudomonas aeruginosa; experiment: MIC by broth micro-dilution (CLSI), carbapenem sensitive P. aeruginosa; format: cell-based; conditions: Pseudomonas aeruginosa, ATCC27853, Meropenem susceptible P. aeruginosa ATCC27853; read-out: MIC
[2] = system: carbapenemase producing K. pneumoniae; experiment: MIC by broth micro-dilution (CLSI), carbapenemase producing K. pneumoniae; format: cell-based, Klebsiella pneumoniae; conditions: Klebsiella pneumoniae, ATCCBAA1705, KPC-2 K. pneumoniae ATCC BAA-1705; read-out: MIC
[3] = system: methicillin-sensitive Staphylococcus aureus; experiment: MIC by broth micro-dilution (CLSI), methicillin-sensitive S. aureus; format: cell-based; conditions: Staphylococcus aureus, ATCC 29213 / MSSA, MSSA S. aureus ATCC29213; read-out: MIC
[4] = system: carbapenem sensitive Escherichia coli; experiment: MIC by broth micro-dilution (CLSI), carbapenem sensitive E. coli; format: cell-based; conditions: Escherichia coli, ATCC25922, ESBL −ve E. coli ATCC25922; read-out: MIC

SMILES	MIC [1] [µg/mL]	MIC [2] [µg/mL]	MIC [3] [µg/mL]	MIC [4] [µg/mL]
C[C@@H](NC(=O)Cn1cnnn1)[C@H]1C(=O)N2C(C(=O)O)=C(S[C@@H]3CN[C@H](C(=O)N4CCN(CCCN)CC4)C3)[C@H](C)[C@H]12 [Example 445, (4R,5S,6R)-6-((R)-1-(2-(1H-tetrazol-1-yl)acetamido)ethyl)-3-((3S,5S)-5-(4-(3-aminopropyl)piperazine-1-carbooyl)pyrrolidin-3-ylthio)-4-methyl-7-oxo-1-azabicyclo[3.2.0]hept-2-ene-2-carboxylic acid]	1 (≈ 1.69 µM)	1 (≈ 1.69 µM)	2 (≈ 3.39 µM)	0.25 (≈ 0.423 µM)
C[C@@H](NC(=O)Cn1cnnn1)[C@H]1C(=O)N2C(C(=O)O)=C(S[C@@H]3CN[C@H](C(=O)N4CCN(C(=O)CNC(=N)N)CC4)C3)[C@H](C)[C@H]12 [Example 446, (4R,5S,6R)-6-((R)-1-(2-(1H-tetrazol-1-yl)acetamido)ethyl)-3-((3S,5S)-5-(4-(2-guanidinoacetyl)piperazine-1-carbonyl)pyrrolidin-3-ylthio)-4-methyl-7-oxo-1-azabicyclo[3.2.0]hept-2-ene-2-carboxylic acid]	4 (≈ 6.32 µM)	1 (≈ 1.58 µM)	2 (≈ 3.16 µM)	0.25 (≈ 0.395 µM)
C[C@@H](NC(=O)Cn1cnnn1)[C@H]1C(=O)N2C(C(=O)O)=C(S[C@@H]3CN[C@H](C(=O)N4C[C@H](N)C[C@H]4C(=O)N4CC[C@@H](N)C4)C3)[C@H](C)[C@H]12 [Example 447, (4R,5S,6R)-6-((R)-1-(2-(1H-tetrazol-1-yl)acetamido)ethyl)-3-((3S,5S)-5-((2S,4R)-4-amino-2-((R)-3-aminopyrrolidine-1-carbonyl)pyrrolidine-1-carbonyl)pyrrolidin-3-ylthio)-4-methyl-7-oxo-1-azabicyclo[3.2.0]hept-2-ene-2-carboxylic acid]	16 (≈ 24.8 µM)	4 (≈ 6.19 µM)	16 (≈ 24.8 µM)	0.5 (≈ 0.774 µM)
C[C@@H](NC(=O)Cn1cnnn1)[C@H]1C(=O)N2C(C(=O)O)=C(S[C@@H]3CN[C@H](C(=O)N4CCC(n5nccn5)CC4)C3)[C@H](C)[C@H]12 [Example 448, (4R,5S,6R)-6-((R)-1-(2-(1H-tetrazol-1-yl)acetamido)ethyl)-3-((3S,5S)-5-(4-(2H-1,2,3-triazol-2-yl)piperidine-1-carbooyl)pyrrolidin-3-ylthio)-4-methyl-7-oxo-1-azabicyclo[3.2.0]hept-2-ene-2-carboxylic acid]	> 128	8 (≈ 13.3 µM)	4 (≈ 6.67 µM)	0.5 (≈ 0.834 µM)
C[C@@H](NC(=O)Cn1cnnn1)[C@H]1C(=O)N2C(C(=O)O)=C(S[C@H]3CCN(C(=O)CN)C3)[C@H](C)[C@H]12 [Example 449, (4R,5S,6R)-6-((R)-1-(2-(1H-tetrazol-1-yl)acetamido)ethyl)-3-((S)-1-(2-aminoacetyl)pyrrolidin-3-ylthio)-4-methyl-7-oxo-1-azabicyclo[3.2.0]hept-2-ene-2-carboxylic acid]	64 (≈ 134 µM)	4 (≈ 8.36 µM)	4 (≈ 8.36 µM)	0.5 (≈ 1.04 µM)
C[C@@H](NC(=O)Cn1cnnn1)[C@H]1C(=O)N2C(C(=O)O)=C(S[C@@H]3CN[C@H](C(=O)N4CCN(C[C@H](O)CN)CC4)C3)[C@H](C)[C@H]12 [Example 450, (4R,5S,6R)-6-((R)-1-(2-(1H-tetrazol-1-yl)acetamido)ethyl)-3-((3S,5S)-5-(4-((R)-3-amino-2-hydroxypropyl)piperazine-1-carbonyl)pyrrolidin-3-ylthio)-4-methyl-7-oxo-1-azabicyclo[3.2.0]hept-2-ene-2-carboxylic acid]	1 (≈ 1.65 µM)	1 (≈ 1.65 µM)	8 (≈ 13.2 µM)	0.25 (≈ 0.412 µM)
C[C@@H](NC(=O)Cn1cnnn1)[C@H]1C(=O)N2C(C(=O)O)=C(S[C@@H]3CN[C@H](C(=O)N4CCN(CCN5CCNCC5)CC4)C3)[C@H](C)[C@H]12 [Example 451, (4R,5S,6R)-6-((R)-1-(2-(1H-tetrazol-1-yl)acetamido)ethyl)-3-methyl-7-oxo-3-((3S,5S)-5-(4-(2-(piperazin-1-yl)ethyl)piperazine-1-carbonyl)pyrrolidin-3-ylthio)-1-azabicyclo[3.2.0]hept-2-ene-2-carboxylic acid]	2 (≈ 3.1 µM)	1 (≈ 1.55 µM)	8 (≈ 12.4 µM)	0.25 (≈ 0.387 µM)

Continued, values first:

MIC [1] [µg/mL]	MIC [2] [µg/mL]	MIC [3] [µg/mL]	MIC [4] [µg/mL]	SMILES
8 (≈ 13.8 µM)	2 (≈ 3.46 µM)	16 (≈ 27.7 µM)	0.125 (≈ 0.216 µM)	C[C@@H](NC(=O)Cn1cnnn1)[C@H]1C(=O)N2C(C(=O)O)=C(S[C@@H]3CN[C@H](C(=O)N4C[C@H](N)C[C@H]4C(=O)O)C3)[C@H](C)[C@H]12 [Example 453, (4R,5S,6R)-6-((R)-1-(2-(1H-tetrazol-1-yl)acetamido)ethyl)-3-((3S,5S)-5-((2S,4R)-4-amino-2-carboxypyrrolidine-1-carbonyl)pyrrolidin-3-ylthio)-4-methyl-7-oxo-1-azabicyclo[3.2.0]hept-2-ene-2-carboxylic acid]
4 (≈ 6.23 µM)	4 (≈ 6.23 µM)	8 (≈ 12.5 µM)	0.5 (≈ 0.779 µM)	C[C@@H](NC(=O)Cn1cnnn1)[C@H]1C(=O)N2C(C(=O)O)=C(S[C@@H]3CN[C@H](C(=O)N4C[C@@H](N)C[C@H]4CNS(N)(=O)=O)C3)[C@H](C)[C@H]12 [Example 454, (4R,5S,6R)-6-((R)-1-(2-(1H-tetrazol-1-yl)acetamido)ethyl)-3-((3S,5S)-5-((2S,4S)-4-amino-2-((sulfamoylamino)-methyl)pyrrolidine-1-carbonyl)pyrrolidin-3-ylthio)-4-methyl-7-oxo-1-azabicyclo[3.2.0]hept-2-ene-2-carboxylic acid]
4 (≈ 6.23 µM)	2 (≈ 3.12 µM)	4 (≈ 6.23 µM)	0.5 (≈ 0.779 µM)	C[C@@H](NC(=O)Cn1cnnn1)[C@H]1C(=O)N2C(C(=O)O)=C(S[C@@H]3CN[C@H](C(=O)N4C[C@H](N)C[C@H]4CNS(N)(=O)=O)C3)[C@H](C)[C@H]12 [Example 455, (4R,5S,6R)-6-((R)-1-(2-(1H-tetrazol-1-yl)acetamido)ethyl)-3-((3S,5S)-5-((2S,4R)-4-amino-2-((sulfamoylamino)methyl)pyrrolidine-1-carbonyl)pyrrolidin-3-ylthio)-4-methyl-7-oxo-1-azabicyclo[3.2.0]hept-2-ene-2-carboxylic acid]
2 (≈ 3.23 µM)	2 (≈ 3.23 µM)	2 (≈ 3.23 µM)	0.5 (≈ 0.807 µM)	C[C@@H](NC(=O)Cn1cnnn1)[C@H]1C(=O)N2C(C(=O)O)=C(S[C@@H]3CN[C@H](C(=O)N4CCN(C(=O)[C@@H](N)CN)CC4)C3)[C@H](C)[C@H]12 [Example 456, (4R,5S,6R)-6-((R)-1-(2-(1H-tetrazol-1-yl)acetamido)ethyl)-3-((3S,5S)-5-(4-((S)-2,3-diaminopropanoyl)piperazine-1-carbonyl)pyrrolidin-3-ylthio)-4-methyl-7-oxo-1-azabicyclo[3.2.0]hept-2-ene-2-carboxylic acid]
1 (≈ 1.65 µM)	1 (≈ 1.65 µM)	2 (≈ 3.3 µM)	0.25 (≈ 0.413 µM)	C[C@@H](NC(=O)Cn1cnnn1)[C@H]1C(=O)N2C(C(=O)O)=C(S[C@@H]3CN[C@H](C(=O)N4CCN(C[C@H](N)CN)CC4)C3)[C@H](C)[C@H]12 [Example 457, (4R,5S,6R)-6-((R)-1-(2-(1H-tetrazol-1-yl)acetamido)ethyl)-3-((3S,5S)-5-(4-((R)-2,3-diaminopropyl)piperazine-1-carbonyl)pyrrolidin-3-ylthio)-4-methyl-7-oxo-1-azabicyclo[3.2.0]hept-2-ene-2-carboxylic acid]
16 (≈ 32.4 µM)	1 (≈ 2.03 µM)	16 (≈ 32.4 µM)	0.5 (≈ 1.01 µM)	C[C@@H](NC(=O)CN1CCCC1)[C@H]1C(=O)N2C(C(=O)O)=C(S[C@@H]3CN[C@H](C(=O)N(C)C)C3)[C@H](C)[C@H]12 [Example 458, (4R,5S,6R)-3-((3S,5S)-5-(dimethylcarbamoyl)pyrrolidin-3-ylthio)-4-methyl-7-oxo-6-((R)-1-(2-(pyrrolidin-1-yl)acetamido)ethyl)-1-azabicyclo[3.2.0)hept-2-eoe-2-carboxylic acid]
4 (≈ 7.1 µM)	2 (≈ 3.55 µM)	4 (≈ 7.1 µM)	0.5 (≈ 0.887 µM)	C[C@@H](NC(=O)Cn1cnnn1)[C@H]1C(=O)N2C(C(=O)O)=C(S[C@@H]3CN[C@H](C(=O)N4CCO[C@H](CN)C4)C3)[C@H](C)[C@H]12 [Example 460, (4R,5S,5R)-6-((R)-1-(2-(1H-tetrazol-1-yl)acetamido)ethyl)-3-((3S,5S)-5-((R)-2-(aminomethyl)morpholine-4-carbonyl)pyrrolidin-3-ylthio)-4-methyl-7-oxo-1-azabicyclo[3.2.0]hept-2-ene-2-carboxylic acid]
2 (≈ 3.38 µM)	1 (≈ 1.69 µM)	4 (≈ 6.76 µM)	0.5 (≈ 0.845 µM)	C[C@@H](NC(=O)Cn1cnnn1)[C@H]1C(=O)N2C(C(=O)O)=C(S[C@@H]3CN[C@H](C(=O)N4CCC(CN)(CO)CC4)C3)[C@H](C)[C@H]12 [Example 463, (4R,5S,6R)-6-((R)-1-(2-(1H-tetrazol-1-yl)acetamido)ethyl)-3-((3S,5S)-5-(4-(aminomethyl)-4-(hydroxymethyl)piperidine-1-carbonyl)pyrrolidin-3-ylthio)-4-methyl-7-oxo-1-azabicyclo[3.2.0]hept-2-ene-2-carboxylic acid]
16 (≈ 29.2 µM)	4 (≈ 7.3 µM)	4 (≈ 7.3 µM)	1 (≈ 1.83 µM)	C[C@@H](NC(=O)Cn1cnnn1)[C@H]1C(=O)N2C(C(=O)O)=C(S[C@@H]3CN[C@H](C(=O)N4CCC[C@H]4CN)C3)[C@H](C)[C@H]12 [Example 464, (4R,5S,6R)-6-((R)-1-(2-(1-tetrazol-1-yl)acetamido)ethyl)-3-((3S,5S)-5-((S)-2-(aminomethyl)pyrrolidine-1-carbooyl)pyrrolidin-3-ylthio)-4-methyl-7-oxo-1-azabicyclo[3.2.0]hept-2-ene-2-carboxylic acid]
